Data as given in US20240174690A1, “ANNULATED 2-AMINO-3-CYANO THIOPHENES AND DERIVATIVES FOR THE TREATMENT OF CANCER” (BOEHRINGER INGELHEIM INTERNATIONAL GMBH, priority 2021, published 2024).

Tests used:
[1] = test system: KRAS G12D-dependent Ba/F3 cells; experiment: Ba/F3 proliferation assay, KRAS G12D; type: cell-based; conditions: Mus musculus, BaF3, 72 h, AlamarBlue
How it was run: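 Transforming KRAS G12 mutants replaced IL-3 dependence in retrovirally engineered Ba/F3 cells, with puromycin omitted about ten days before testing. Growth under compound was quantified with an AlamarBlue fluorescent viability stain, in duplicate, by curve fitting.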

SK-CO-1 cells = experiment: SK-CO-1 CTG proliferation assay (120 h) (CRC, G12V); type: cell-based; conditions: Homo sapiens; SK-CO-1 cells (CRC, G12V), CTG 120 h
How it was run: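 SK-CO-1 colorectal cells (KRAS G12V), 500 per well in EMEM + 10% FCS, dosed with compound the day after seeding and grown 120 h at 37 °C. Viability by CellTiter-Glo luminescence as percent of DMSO control; IC50 from four-parameter non-linear regression.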

[2] = Caco-2 assay (permeability PappAB, PappBA, efflux ratio); type: in vitro ADME; conditions: human, Caco-2, 10 μM test compound, pH 7.4; for Papp A→B at 90 min, 10 μM: apical to basolateral; for efflux ratio at 90 min, 10 μM: efflux ratio PappBA/PappAB, read-out: Caco ER
How it was run: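 Confluent Caco-2 monolayers on filter supports, 0.25% BSA in both donor and receiver buffer; transport measured a-b and b-a. After 25-30 min preincubation at 37 °C, samples at 0, 30, 60, 90 min quantified by HPLC/MS/MS. Papp from receiver amount per time, filter area and initial donor concentration; efflux ratio = PappBA/PappAB.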

| Compound | IC50 [1] [nM] | IC50 (SK-CO-1 cells) [nM] | Papp A→B at 90 min, 10 μM [2] [×10⁻⁶ cm/s] | efflux ratio at 90 min, 10 μM [2] |
| --- | --- | --- | --- | --- |
| CO[C@H]1CCN(C)[C@@H]1[C@H](C)Oc1cc(-n2ccc(C(=O)N[C@H]3CCOC3)n2)nc(-c2onc3c2CCC[C@@]32CCCc3sc(N)c(C#N)c32)n1 [I-54] | 7 | 7 |  |  |
| CO[C@H]1CCN(C)[C@@H]1[C@H](C)Oc1cc(-n2ccc(CC(=O)NC(C)C)n2)nc(-c2onc3c2CCC[C@@]32CCCc3sc(N)c(C#N)c32)n1 [I-48] | 24 | 14 |  |  |
| C[C@H](Oc1cc(N2CCN(C)C3(CCC3)C2)nc(-c2onc3c2CCC[C@@]32CCCc3sc(N)c(C#N)c32)n1)[C@@H]1CCCN1C [I-44] | 91 | 1210 |  |  |
| C[C@H](Oc1cc([C@@H]2CCOC2)nc(-c2onc3c2CCC[C@@]32CCCc3sc(N)c(C#N)c32)n1)[C@@H]1CCCN1C [I-22] | 14 | 20 | 18 | 1.9 |
| C[C@H](Oc1cc(-n2ccc(C(=O)N(C)C3COC3)n2)nc(-c2onc3c2CCC[C@@]32CCCc3sc(N)c(C#N)c32)n1)[C@@H]1CCCN1C [I-60] | 22 | 21 |  |  |
| C[C@H](Oc1cc(Cl)nc(-c2onc3c2CCC[C@@]32CCCc3sc(N)c(C#N)c32)n1)[C@@H]1CCCN1C [I-1] | 178 | 418 |  |  |
| C[C@H]1CN(C)CCCN1c1nc(-c2onc3c2CCC[C@@]32CCCc3sc(N)c(C#N)c32)cc(N2CCN(C)C3(CC3)C2)n1 [I-42] | 440 |  |  |  |
| C[C@H](Oc1cc(-n2ccc(C(=O)N[C@@H]3CCOC3)n2)nc(-c2onc3c2CCC[C@@]32CCCc3sc(N)c(C#N)c32)n1)[C@@H]1CCCN1C [I-56] | 16 | 8 |  | 10.4 |
| CO[C@H]1CCN(C)[C@@H]1[C@H](C)Oc1cc(-n2ccc(C(=O)N[C@@H]3CCOC3)n2)nc(-c2onc3c2CCC[C@@]32CCCc3sc(N)c(C#N)c32)n1 [I-53] | 12 | 7 |  |  |
| COCCNC(=O)c1ccn(-c2cc(O[C@@H](C)[C@@H]3[C@@H](OC)CCN3C)nc(-c3onc4c3CCC[C@@]43CCCc4sc(N)c(C#N)c43)n2)n1 [I-55] | 12 | 9 |  |  |
| C[C@H](NC(=O)c1ccn(-c2cc(O[C@@H](C)[C@@H]3CCCN3C)nc(-c3onc4c3CCC[C@@]43CCCc4sc(N)c(C#N)c43)n2)n1)c1ccccn1 [I-59] | 13 | 5 |  |  |
| C[C@H](Oc1cc(-n2ccc(C(=O)N[C@H]3CCOC3)n2)nc(-c2onc3c2CCC[C@@]32CCCc3sc(N)c(C#N)c32)n1)[C@@H]1CCCN1C [I-57] | 8 | 4 |  |  |
| C[C@H](Oc1cc(-n2nccn2)nc(-c2onc3c2CCC[C@@]32CCCc3sc(N)c(C#N)c32)n1)[C@@H]1CCCN1C [I-29] | 71 | 381 |  |  |
| C[C@H](Oc1cc(-c2ccc(N)nc2)nc(-c2onc3c2CCC[C@@]32CCCc3sc(N)c(C#N)c32)n1)[C@@H]1CCCN1C [I-25] | 261 | 357 |  |  |

Further lines, results first:

| IC50 [1] [nM] | IC50 (SK-CO-1 cells) [nM] | Papp A→B at 90 min, 10 μM [2] [×10⁻⁶ cm/s] | efflux ratio at 90 min, 10 μM [2] | Compound |
| --- | --- | --- | --- | --- |
| 40 | 600 |  |  | C[C@H](Oc1cc(N2CC[C@@H](N(C)C)C2)nc(-c2noc3c2CCC[C@@]32CCCc3sc(N)c(C#N)c32)n1)[C@@H]1CCCN1C [II-47] |
| 94 | 1240 | 1.3 | 21.5 | C[C@H](Oc1cc(N2CC(N(C)C)C2)nc(-c2noc3c2CCC[C@@]32CCCc3sc(N)c(C#N)c32)n1)[C@@H]1CCCN1C [II-7] |
| 53 | 31 |  |  | CCOC(=O)c1ccn(-c2cc(O[C@@H](C)[C@@H]3CCCN3C)nc(-c3noc4c3CCC[C@@]43CCCc4sc(N)c(C#N)c43)n2)n1 [II-23] |
| 39 | 617 |  |  | C[C@@H]1CN(c2cc(O[C@@H](C)[C@@H]3C[C@@H](F)CN3C)nc(-c3noc4c3CCC[C@@]43CCCc4sc(N)c(C#N)c43)n2)CC2(CC2)N1 [II-17] |
| 68 | 1240 |  |  | C[C@H](Oc1cc(N2CCN(C)CC2)nc(-c2noc3c2CCC[C@@]32CCCc3sc(N)c(C#N)c32)n1)[C@@H]1CCCN1[C@@H]1CCOC1 [II-39] |
| 64 | 1120 |  |  | C[C@@H]1CN(c2cc(O[C@@H](C)[C@@H]3CCCN3C)nc(-c3noc4c3CCC[C@@]43CCCc4sc(N)c(C#N)c43)n2)C[C@H](C)N1 [II-36] |
| 82 | 5730 | < 0.5 |  | CN[C@H]1CCN(c2cc(O[C@@H](C)[C@@H]3CCCN3C)nc(-c3noc4c3CCC[C@@]43CCCc4sc(N)c(C#N)c43)n2)C1 [II-35] |
| 183 | 1870 | 0.5 | 33.3 | C[C@H]1CN(C)CCCN1c1cc(N2CC[C@H](N(C)C)C2)nc(-c2noc3c2CCC[C@@]32CCCc3sc(N)c(C#N)c32)n1 [II-16] |
| 10 | 11 |  |  | C[C@H](Oc1cc(-n2ccc(C(=O)N3CCCC3)n2)nc(-c2noc3c2CCC[C@@]32CCCc3sc(N)c(C#N)c32)n1)[C@@H]1CCCN1C [II-19] |
| 18 | 1390 |  | 0.8 | [2H]C([2H])([2H])N1C[C@H](F)C[C@H]1[C@H](C)Oc1cc(N2CCN(C)C3(CC3)C2)nc(-c2noc3c2CCC[C@@]32CCCc3sc(N)c(C#N)c32)n1 [II-209] |
| 3 | 398 |  | 1.8 | [2H]C([2H])([2H])N1C[C@H](F)C[C@H]1[C@H](C)Oc1cc(N2CCNC3(CC3)C2)nc(-c2noc3c2CCC[C@@]32CCCc3sc(N)c(C#N)c32)n1 [II-208] |
| 7 | 488 | 0.8 | 39.7 | C[C@H](Oc1cc(N2CCNC3(CCC3)C2)nc(-c2noc3c2CCC[C@@]32CCCc3sc(N)c(C#N)c32)n1)[C@@H]1CCCN1C [II-40] |
| 273 | 9070 |  |  | C[C@H]1CN(C)CCCN1c1cc(N2CCN(C)CC2)nc(-c2noc3c2CCC[C@@]32CCCc3sc(N)c(C#N)c32)n1 [II-30] |
| 58 | 1790 |  |  | C[C@H](Oc1cc(N2CCNCC2)nc(-c2noc3c2CCC[C@@]32CCCc3sc(N)c(C#N)c32)n1)[C@@H]1CCCN1C [II-45] |
| 26 | 910 |  |  | C[C@H](Oc1cc(N2CCNC3(CCCC3)C2)nc(-c2noc3c2CCC[C@@]32CCCc3sc(N)c(C#N)c32)n1)[C@@H]1CCCN1C [II-41] |
| 20 | 444 |  |  | C[C@H](Oc1cc(N2C[C@H](C)NC3(CC3)C2)nc(-c2noc3c2CCC[C@@]32CCCc3sc(N)c(C#N)c32)n1)[C@@H]1C[C@@H](F)CN1C [II-18] |
| 85 | 800 |  |  | C[C@H](Oc1cc(N2C[C@@H](N(C)C)[C@@H](F)C2)nc(-c2noc3c2CCC[C@@]32CCCc3sc(N)c(C#N)c32)n1)[C@@H]1CCCN1C [II-11] |
| > 25000 | 9250 |  |  | C[C@H](Oc1cc(-n2ccc(C(=O)O)n2)nc(-c2noc3c2CCC[C@@]32CCCc3sc(N)c(C#N)c32)n1)[C@@H]1CCCN1C [II-24] |
| 90 | 433 |  |  | C[C@H](Oc1cc(-c2cnn(C)n2)nc(-c2noc3c2CCC[C@@]32CCCc3sc(N)c(C#N)c32)n1)[C@@H]1C[C@@H](F)CN1C [II-28] |
| 1040 | 29 |  |  | C[C@H](Oc1cc(-n2ccsc2=O)nc(-c2noc3c2CCC[C@@]32CCCc3sc(N)c(C#N)c32)n1)[C@@H]1CCCN1C [II-135] |
